Experiments:
Assay type in all cases: in vivo
[1] = test system: japonica rice (ORYSP, Oryza sativa); assay: Test G paddy, alone and in combination: japonica rice; conditions: evaluated after 14 days
Experimental: (§1) Seeds of smallflower umbrella sedge (CYPDI, Cyperus difformis) and ducksalad (HETLI, Heteranthera limosa) were sown on the soil surface in two separate quadrants of 11 cm tubs filled with steam pasteurized Tama soil. Simultaneously, plantings of barnyardgrass (ECHCG, Echinochloa crus-galli) and japonica rice (ORYSP, Oryza sativa) were established in separate “plug” flats. Plants were grown in a greenhouse using supplemental lighting to maintain a photoperiod of approximately 16 h; daytime and nighttime temperatures were approximately 27-30° C. and 19-22° C., respectively. After 8 days, barnyardgrass plants were transplanted to one of the remaining quadrants of the tub, and the water level was adjusted to a final depth of 3 cm. Herbicide application timing was targeted at the 2.0 to 2.5 leaf stage and the plants were treated with test chemicals formulated in a non-phytotoxic solvent. Treated plants and controls were maintained in a greenhouse for 14 days, after which time all species were compared to controls and visually evaluated. Plant response ratings are summarized in Tables G1 through G3, and are based on a scale of 0 to 100 where 0 is no effect and 100 is complete control. A dash (-) response means no test result.

[2] = test system: barnyardgrass (ECHCG, Echinochloa crus-galli); assay: Test G paddy, alone and in combination: barnyardgrass; conditions: evaluated after 14 days
Experimental: as §1

[3] = test system: smallflower umbrella sedge (CYPDI, Cyperus difformis); assay: Test G paddy, alone and in combination: smallflower umbrella sedge; conditions: evaluated after 14 days
Experimental: as §1

[4] = test system: ducksalad (HETLI, Heteranthera limosa); assay: Test G paddy, alone and in combination: ducksalad; conditions: evaluated after 14 days
Experimental: as §1

[5] = test system: wheat (TRZAW, Triticum aestivum); assay: Test H post-emergence, alone and in combination: wheat
From the text: (§2) Seeds of plant species selected from wheat (TRZAW, Triticum aestivum), barley (HORBW, Hordeum vulgare), Kochia (KCHSC, Kochia caoparia) blackgrass (ALOMY, Alopecurus myosuroides), canarygrass (PHAMI, Phalaris minor), Italian ryegrass (LOLMU, Lolium multiflorum) common lambsquarter (CHEAL, Chenopodium album), pigweed (AMARE, Amaranthus retroflexus), Common Chickweed (STEME, Stellaria media), Russian thistle (SASKR, Salsola iberica), Wild Buckwheat (POLCO, Polygonum convolvulus), Catchweed Bedstraw (GALAP, Galium aparine), Mustard (SINAR, Sinapisar arvensis), Henbit Deadnettle (LAMAM, Lamium amplexicaule), Wild Radish (RAPRA, Raphanus raphanistrum), Field Poppy (PAPRH, Papaver rhoeas), Field Violet (VIOAR, Viola arvennsis), Scentless Chamomile (MATIN Matricaria inodora) were planted into soil and treated post-emergence with test chemicals formulated in a non-phytotoxic solvent mixture. Plants were grown in a greenhouse using supplemental lighting to maintain a photoperiod of approximately 14 hours; daytime and nighttime temperatures were approximately 23°-29° and 16°-19° Celsius, respectively. Balanced fertilizer was applied through the watering system. Treated plants and controls were maintained in a greenhouse for 20 days, after which time all species were compared to controls and visually evaluated. Plant response ratings were calculated as the mean of three replicates (unless otherwise indicated), are summarized in Table G, and are based on a scale of 0 to 100 where 0 is no effect and 100 is complete control. A dash (-) response means no test result.

[6] = test system: barley (HORBW, Hordeum vulgare); assay: Test H post-emergence, alone and in combination: barley
In short: (§3)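 Seedlings grown in soil were sprayed post-emergence with test chemicals in a non-phytotoxic solvent mixture, then kept in a greenhouse (~14 h photoperiod, ~23°-29° day/16°-19° night Celsius) for 20 days. Injury was rated visually against untreated controls on a 0–100 scale (100 = complete control), averaged over three replicates.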

[7] = test system: Kochia (KCHSC, Kochia caoparia); assay: Test H post-emergence, alone and in combination: Kochia
From the text: as §2

[8] = test system: blackgrass (ALOMY, Alopecurus myosuroides); assay: Test H post-emergence, alone and in combination: blackgrass
From the text: as §2

[9] = test system: canarygrass (PHAMI, Phalaris minor); assay: Test H post-emergence, alone and in combination: canarygrass
In short: as §3

[10] = test system: Italian ryegrass (LOLMU, Lolium multiflorum); assay: Test H post-emergence, alone and in combination: Italian ryegrass
From the text: as §2

[11] = test system: common lambsquarter (CHEAL, Chenopodium album); assay: Test H post-emergence, alone and in combination: common lambsquarter
From the text: as §2

[12] = test system: pigweed (AMARE, Amaranthus retroflexus); assay: Test H post-emergence, alone and in combination: pigweed
From the text: as §2

[13] = test system: Common Chickweed (STEME, Stellaria media); assay: Test H post-emergence, alone and in combination: Common Chickweed
In short: as §3

[14] = test system: Russian thistle (SASKR, Salsola iberica); assay: Test H post-emergence, alone and in combination: Russian thistle
In short: as §3

[15] = test system: Wild Buckwheat (POLCO, Polygonum convolvulus); assay: Test H post-emergence, alone and in combination: Wild Buckwheat
From the text: as §2

[16] = test system: Catchweed Bedstraw (GALAP, Galium aparine); assay: Test H post-emergence, alone and in combination: Catchweed Bedstraw
In short: as §3

[17] = test system: Mustard (SINAR, Sinapisar arvensis); assay: Test H post-emergence, alone and in combination: Mustard
In short: as §3

[18] = test system: Henbit Deadnettle (LAMAM, Lamium amplexicaule); assay: Test H post-emergence, alone and in combination: Henbit Deadnettle
In short: as §3

[19] = test system: Wild Radish (RAPRA, Raphanus raphanistrum); assay: Test H post-emergence, alone and in combination: Wild Radish
From the text: as §2

[20] = test system: Field Poppy (PAPRH, Papaver rhoeas); assay: Test H post-emergence, alone and in combination: Field Poppy
From the text: as §2

[21] = test system: Field Violet (VIOAR, Viola arvennsis); assay: Test H post-emergence, alone and in combination: Field Violet
From the text: as §2

[22] = test system: Scentless Chamomile (MATIN Matricaria inodora); assay: Test H post-emergence, alone and in combination: Scentless Chamomile
From the text: as §2

COC(=O)c1ccccc1CS(=O)(=O)NC(=O)Nc1nc(OC)cc(OC)n1 [b2a, bensulfuron-methyl]
ORYSP plant response rating (scale of 0 to 100) ([1]; Rate 16 g/ha): 0
ORYSP plant response rating (scale of 0 to 100) ([1]; Rate 31 g/ha): 0
ORYSP plant response rating (scale of 0 to 100) ([1]; Rate 32 g/ha): 0
ORYSP plant response rating (scale of 0 to 100) ([1]; Rate 62 g/ha): 0
ORYSP plant response rating (scale of 0 to 100) ([1]; Rate 64 g/ha): 0
ORYSP plant response rating (scale of 0 to 100) ([1]; Rate 125 g/ha): 0
ECHCG plant response rating (scale of 0 to 100) ([2]; Rate 16 g/ha): 60
ECHCG plant response rating (scale of 0 to 100) ([2]; Rate 31 g/ha): 68
ECHCG plant response rating (scale of 0 to 100) ([2]; Rate 32 g/ha): 60
ECHCG plant response rating (scale of 0 to 100) ([2]; Rate 62 g/ha): 75
ECHCG plant response rating (scale of 0 to 100) ([2]; Rate 64 g/ha): 68
ECHCG plant response rating (scale of 0 to 100) ([2]; Rate 125 g/ha): 75
CYPDI plant response rating (scale of 0 to 100) ([3]; Rate 16 g/ha): 90
CYPDI plant response rating (scale of 0 to 100) ([3]; Rate 31 g/ha): 90
CYPDI plant response rating (scale of 0 to 100) ([3]; Rate 32 g/ha): 90
CYPDI plant response rating (scale of 0 to 100) ([3]; Rate 62 g/ha): 93
CYPDI plant response rating (scale of 0 to 100) ([3]; Rate 64 g/ha): 90
CYPDI plant response rating (scale of 0 to 100) ([3]; Rate 125 g/ha): 93
HETLI plant response rating (scale of 0 to 100) ([4]; Rate 16 g/ha): 90
HETLI plant response rating (scale of 0 to 100) ([4]; Rate 31 g/ha): 95
HETLI plant response rating (scale of 0 to 100) ([4]; Rate 32 g/ha): 90
HETLI plant response rating (scale of 0 to 100) ([4]; Rate 62 g/ha): 98
HETLI plant response rating (scale of 0 to 100) ([4]; Rate 64 g/ha): 95
HETLI plant response rating (scale of 0 to 100) ([4]; Rate 125 g/ha): 98

COC(=O)c1sccc1S(=O)(=O)NC(=O)Nc1nc(C)nc(OC)n1 [b2c, thifensulfuron-methyl]
TRZAW plant response ([5]; Rate 8): 0
TRZAW plant response ([5]; Rate 16): 0
TRZAW plant response ([5]; Rate 31): 0
TRZAW plant response ([5]; Rate 62): 5
HORBW plant response ([6]; Rate 8): 0
HORBW plant response ([6]; Rate 16): 5
HORBW plant response ([6]; Rate 31): 5
HORBW plant response ([6]; Rate 62): 5
KCHSC plant response ([7]; Rate 8): 70
KCHSC plant response ([7]; Rate 16): 85
KCHSC plant response ([7]; Rate 31): 95
KCHSC plant response ([7]; Rate 62): 100
ALOMY plant response ([8]; Rate 8): 10
ALOMY plant response ([8]; Rate 16): 45
ALOMY plant response ([8]; Rate 31): 60
ALOMY plant response ([8]; Rate 62): 65
PHAMI plant response ([9]; Rate 8): 10
PHAMI plant response ([9]; Rate 16): 60
PHAMI plant response ([9]; Rate 31): 70
PHAMI plant response ([9]; Rate 62): 90
LOLMU plant response ([10]; Rate 8): 20
LOLMU plant response ([10]; Rate 16): 50
LOLMU plant response ([10]; Rate 31): 70
LOLMU plant response ([10]; Rate 62): 90
CHEAL plant response ([11]; Rate 8): 85
CHEAL plant response ([11]; Rate 16): 70
CHEAL plant response ([11]; Rate 31): 100
CHEAL plant response ([11]; Rate 62): 95
AMARI plant response ([12]; Rate 8): 100
AMARI plant response ([12]; Rate 16): 100
AMARI plant response ([12]; Rate 31): 100
AMARI plant response ([12]; Rate 62): 100
STEME plant response ([13]; Rate 8): 85
STEME plant response ([13]; Rate 16): 100
STEME plant response ([13]; Rate 31): 100
STEME plant response ([13]; Rate 62): 100
SASKR plant response ([14]; Rate 8): 100
SASKR plant response ([14]; Rate 16): 100
SASKR plant response ([14]; Rate 31): 100
SASKR plant response ([14]; Rate 62): 100
POLCO plant response ([15]; Rate 8): 95
POLCO plant response ([15]; Rate 16): 95
POLCO plant response ([15]; Rate 31): 95
POLCO plant response ([15]; Rate 62): 95
GALAP plant response ([16]; Rate 8): 80
GALAP plant response ([16]; Rate 16): 90
GALAP plant response ([16]; Rate 31): 75
GALAP plant response ([16]; Rate 62): 95
SINAR plant response ([17]; Rate 8): 80
SINAR plant response ([17]; Rate 16): 90
SINAR plant response ([17]; Rate 31): 85
SINAR plant response ([17]; Rate 62): 95
LAMAM plant response ([18]; Rate 8): 60
LAMAM plant response ([18]; Rate 16): 70
LAMAM plant response ([18]; Rate 31): 75
LAMAM plant response ([18]; Rate 62): 75
RAPRA plant response ([19]; Rate 8): 95
RAPRA plant response ([19]; Rate 16): 75
RAPRA plant response ([19]; Rate 31): 100
RAPRA plant response ([19]; Rate 62): 95
PAPRH plant response ([20]; Rate 8): 70
PAPRH plant response ([20]; Rate 16): 75
PAPRH plant response ([20]; Rate 31): 100
PAPRH plant response ([20]; Rate 62): 100
VIOAR plant response ([21]; Rate 8): 80
VIOAR plant response ([21]; Rate 16): 85
VIOAR plant response ([21]; Rate 31): 75
VIOAR plant response ([21]; Rate 62): 95
MATIN plant response ([22]; Rate 8): 95
MATIN plant response ([22]; Rate 16): 90
MATIN plant response ([22]; Rate 31): 100
MATIN plant response ([22]; Rate 62): 100

COCCCn1c(-c2cccc(OC)c2)ncc(C(=O)C2=C(O)CCCC2=O)c1=O [b12a, 5-[(2-hydroxy-6-oxo-1-cyclohexen-1-yl)carbonyl]-2-(3-methoxyphenyl)-3-(3-methoxypropyl)-4(3H)-pyrimidinone]
ORYSP plant response rating (scale of 0 to 100) ([1]; Rate 125 g/ha): 5
ECHCG plant response rating (scale of 0 to 100) ([2]; Rate 125 g/ha): 35
CYPDI plant response rating (scale of 0 to 100) ([3]; Rate 125 g/ha): 80
HETLI plant response rating (scale of 0 to 100) ([4]; Rate 125 g/ha): 80

From patent US9302999B2, “Substituted triazoles as herbicides” (E. I. DU PONT DE NEMOURS AND COMPANY, priority 2012, dated 2016)
